Data published in PubChem BioAssay (NCI).
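Five concentrations, 48 hours, 96-well plates. Abbreviation: GI50, concentration required for 50% inhibition of growth. At the TGI there is no net growth.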

What was measured:
Assay in all cases: NCI tumour cell line growth inhibition, 48 h
[1] = system: SK-OV-3 ovarian
[2] = system: NCI/ADR-RES ovarian
[3] = system: SK-MEL-2 melanoma
[4] = system: SF-268 CNS
[5] = system: OVCAR-3 ovarian
[6] = system: SN12C renal
[7] = system: UO-31 renal
[8] = system: T-47D breast
[9] = system: OVCAR-4 ovarian
[10] = system: CAKI-1 renal

Row | SMILES | GI50 [1] [µM] | TGI [1] [µM] | GI50 [2] [µM] | TGI [2] [µM] | GI50 [3] [µM] | TGI [3] [µM] | GI50 [4] [µM] | TGI [4] [µM] | GI50 [5] [µM] | TGI [5] [µM] | GI50 [6] [µM] | TGI [6] [µM] | GI50 [7] [µM] | TGI [7] [µM] | GI50 [8] [µM] | TGI [8] [µM] | GI50 [9] [µM] | TGI [9] [µM] | GI50 [10] [µM] | TGI [10] [µM]
1 | COc1cc2c(/C=C3/C(=O)Nc4ccc(O)cc43)c(Cl)n(Cc3cc(OC)c(OC)c(OC)c3)c2cc1C | 4.06 | > 75 | 3.41 | > 100 | 1.93 | 13.7 | 4.64 | > 100 | 1.32 | > 20.8 | 4.14 | > 44 | 3.25 | > 74.4 | 5.55 | > 70.8 | 4.03 | > 100 | 2.25 | 15
2 | Cc1c[nH]c(=O)n(Cc2nnc(CCC(=O)c3nc4ccccc4[nH]3)o2)c1=O | 0.46 | 13.2 | 14.7 | 63.8 | 0.887 | > 23.9 | 1.5 | > 100 | 0.315 | 1.26 | 1.12 | > 100 | 2.4 | > 100 | 1.03 | > 100 | 0.629 | > 100 | 7.22 | > 100
3 | O=c1oc2ccc(Cl)cc2c(=O)n1-c1ccc(F)cc1F | 1.12 | 5.43 | 2.63 | 9.5 | 1.13 | 3.97 | 2.21 | 15.8 | 2.24 | 18.2 | 1.67 | 8.78 | 1.22 | 7.97 | 1.08 | 5.27 | 1.11 | > 100 | 1.45 | 5.6
4 | O=[N+]([O-])c1ccc(N=Nc2c(Cl)cc(O)cc2Cl)cc1 | 2.1 | 10.3 | 0.863 | 8.49 | 1.66 | 4.39 | 1.18 | 7.73 | 0.462 | 2.47 | 0.875 | 10.3 |  |  | 0.657 | 5.46 | 1.39 | 12 | 2.26 | 5.79
5 | CCOC(=O)c1c2c(n3ccc(NC(=O)CCN4CCCCC4)cc13)C(=O)c1ncccc1C2=O | 0.0953 | 18.7 | 1.14 | 3.66 | 3.99 | 23.8 | 0.0503 | 2.25 | 1.14 | 2.64 | 0.111 | 2.33 | 0.0315 | 1.46 | 8 | 30.2 | 1.42 | 3.56 | 0.0279 | 4.18
6 | O=C(CCCC(=O)N/N=C/c1cc(Cl)ccc1O)N/N=C\c1cc(Cl)ccc1O | 5.95 | > 100 | 3.44 | > 100 | > 100 | > 100 | 2.5 | > 100 | 0.847 | > 100 | 4.3 | > 100 | 1.24 | > 100 | 3.23 | > 100 | 1.25 | > 100 | 1.98 | > 100
7 | CN(/N=C/c1ccccc1O)c1ccc2ccccc2n1 |  | 29.8 |  | > 100 |  | > 100 |  | 53.8 |  | 34.7 |  | > 100 |  | 35.2 |  | 50.4 |  | 67.7 |  | > 100
8 | O=C1/C(=C/c2ccc(F)cc2)CN(C(=O)C(Cl)Cl)C/C1=C\c1ccc(F)cc1 | 0.884 | 2.2 | 0.327 | 1.71 | 0.94 | 2.9 | 0.328 | 1.47 | 0.262 | 0.778 | 0.222 | 0.556 | 0.163 | 0.327 | 0.702 | 3.6 | 0.321 | 1.15 | 0.309 | 1.08
9 | O=C(Nc1ccccc1Cl)c1ccc(NC2=C(Cl)C(=O)N(C3CCCCC3)C2=O)cc1 | 27.1 | 65.2 | 29.3 | 82.8 | 16.7 | 44.1 | 20.2 | 52.9 | 9.25 | 28.4 |  |  | 16.6 | 42.3 | 6.41 | 34.8 | 25.1 | 74.9 | 22.9 | 56.5
10 | C=CCOc1ccc(N)c([N+](=O)[O-])c1 |  | > 100 |  | > 100 |  | > 100 |  | > 100 |  |  |  | > 100 |  | > 100 |  | > 100 |  |  |  | > 100
11 | C/C(CC(C)(C)N1CC1)=N\NC(=O)Nc1cccc2ccccc12 |  |  | 3.67 | 22.4 | 2.24 | 5.45 | 3.72 | 16.2 | 2.32 | 5.92 | 5.76 | 77.9 | 2.58 | 12.2 | 4.35 | 17.3 | 4.23 | 15.9 | 3.73 | 13.2
